Test results taken from publication PMC4907212, “Mucosal and blood-brain barrier transport kinetics of the plant N-alkylamide spilanthol using in vitro and in vivo models” (BMC Complementary and Alternative Medicine, 2016).
Read-outs that look alike come from different tables or passages of the source.

How the values were obtained:
[1] = Caco-2 cell permeability assay (Transwell, ab and ba direction); format: in vitro ADME, human; settings: human; for Papp A→B at 120 min, 10 μg/ml / Papp B→A at 120 min, 10 μg/ml: mean ± SD, n = 2; for Papp A→B at 120 min, 10 μg/ml: read-out: apparent permeability coefficient (Papp), apical-to-basolateral; for Papp B→A at 120 min, 10 μg/ml: read-out: apparent permeability coefficient (Papp), basolateral-to-apical; for efflux ratio at 120 min, 10 μg/ml: read-out: efflux ratio (Papp,ba/Papp,ab)
Protocol: (§1) Caco-2 cells, originating from a human colorectal carcinoma were maintained in Dulbecco's modified Eagle's medium (DMEM) at 95 % humidity and 37 °C in an atmosphere of 5 % CO2, supplemented with 10 % (V/V) fetal bovine serum, 2 mM L-glutamine and 1 % non-essential amino acids (100x), 100 U/ml penicillin and 100 μg/ml streptomycin (all from Invitrogen/GIBCO, Ghent, Belgium). The Caco-2 cell intestinal model was used as a model for the gut mucosa to investigate the permeation of spilanthol. Caco-2 cells were seeded at a density of 2.6 · 10^5 cells/cm^2 cells for each Transwell (Corning Costar, New York, USA) membrane insert filter (0.4 μm pore size, 12 mm filter diameter) and cultivated in the described supplemented DMEM, also containing 100 units/ml penicillin and 100 μg/ml streptomycin. The medium was changed every second day. The cells were allowed to grow and differentiate for 21-29 days until monolayers were formed. Intact membranes/integrity of the monolayers were checked via the measurement of transepithelial electrical resistance (TEER) of the monolayers using the Millicell-ERS system (Millipore Corp., Bedford, MA, USA) before and after transport experiments. The experiment was performed in duplicate for each dose solution. Transport experiments were carried out in the apical-to-basolateral (ab) direction and in the basolateral-to-apical (ba) direction in Hanks' Balanced Salt solution, according to Hubatsch et al.. Two dose solutions of purified spilanthol at 10 μg/ml were tested, differing in solvent: 0.5 % ethanol (further indicated as DS1) and 0.5 % of a mixture of vitamin E-TPGS (33.3 %), ethanol (11.1 %), PEG 400 (33.3 %) and PG (22.2 %) (further indicated as DS2) dissolved in HBSS. Final volumes of 0.4 ml apically and 1.2 ml basolaterally were used for 12-mm filter supports during the transport experiment. Samples were taken at 15, 30, 60, 90 and 120 min from the acceptor (= receiver) compartment (basolateral to apical transport: 100 μl; apical to basolateral transport: 300 μl) and were immediately replaced by fresh HBSS. […] Quantification of spilanthol was conducted using the UPLC-MS^2 method as described below. The apparent permeability coefficient (Papp in cm/s) of spilanthol was calculated from a non-sink equation. From Fick's first law: J = - […] is the diffusion coefficient, J is the flux or transfer rate along the donor-to-receptor side, x is the distance from the donor compartment and C(x) is the concentration in the barrier at the coordinate x in the barrier), the following differential equation is derived: dMr(t)/dt = Papp × […])], in which Mr is the amount of substance in the receiver chamber, Papp is the apparent permeability coefficient (a product of distribution coefficient with diffusion coefficient divided by the barrier thickness), A is the cross-sectional area of the barrier, Cd is the donor concentration and Cr is the receiver concentration. This differential equation is the basis to calculate Papp values of compounds requiring sink, as well as non-sink conditions with different initial conditions to solve this equation. […] Non-linear curve fitting by minimisation of the sum of squared residuals (SSR) was used to obtain the Papp. The efflux ratio is calculated as Papp,ba/Papp,ab, while the uptake ratio is calculated as Papp,ab/Papp,ba.

Caco-2 cell monolayer = test: as above; format: in vitro ADME, human
Protocol: as §1

[2] = Serum elimination kinetics in the mice MTR model after intravenous injection; format: in vivo, ICR-CD-1 mice
[3] = set-up: method as in PMID 20227845, PMID 19808085, PMID 23583736; settings: human skin, topical application; cited from earlier work
[4] = set-up: method as in PMID 20227845, PMID 19808085, PMID 23583736; settings: porcine buccal mucosa; cited from earlier work
[5] = set-up: method as in PMID 24055064; settings: source not stated; cited from earlier work

C/C=C/C=C\CC/C=C/C(=O)NCC(C)C [spilanthol, deca-2E,6Z,8E-trienoic acid isobutylamide]
Papp A→B at 120 min, 10 μg/ml ([1]; Caco-2, DS1 (10 μg/ml purified spilanthol, 0.5 % ethanol in HBSS)): 84.2 ×10⁻⁶ cm/s | Papp B→A at 120 min, 10 μg/ml ([1]; Caco-2, DS1): 102 ×10⁻⁶ cm/s | efflux ratio at 120 min, 10 μg/ml ([1]; Caco-2, DS1): 1.21 | Papp A→B at 120 min, 10 μg/ml ([1]; Caco-2, DS2 (10 μg/ml, 0.5 % vitamin E-TPGS/ethanol/PEG 400/PG mixture in HBSS)): 56.1 ×10⁻⁶ cm/s | Papp B→A at 120 min, 10 μg/ml ([1]; Caco-2, DS2): 52 ×10⁻⁶ cm/s | efflux ratio at 120 min, 10 μg/ml ([1]; Caco-2, DS2): 0.93 | recovery at 120 min, 10 μg/ml ([1]; Caco-2, donor plus acceptor at last time point (120 min), read-out: mass balance, total recovery): 105 to 121% | uptake ratio (Papp,ab/Papp,ba) (Caco-2 cell monolayer; DS1): 0.82 | amount of spilanthol permeated, apical-to-basolateral (Caco-2 cell monolayer; DS1, after 120 min): 3.20 µg | amount of spilanthol permeated, basolateral-to-apical (Caco-2 cell monolayer; DS1, after 120 min): 3.86 µg | percentage of applied spilanthol permeated, apical-to-basolateral (Caco-2 cell monolayer; DS1, after 120 min): 79.8% | percentage of applied spilanthol permeated, basolateral-to-apical (Caco-2 cell monolayer; DS1, after 120 min): 32.1% | uptake ratio (Papp,ab/Papp,ba) (Caco-2 cell monolayer; DS2): 1.08 | amount of spilanthol permeated, apical-to-basolateral (Caco-2 cell monolayer; DS2, after 120 min): 2.47 µg | amount of spilanthol permeated, basolateral-to-apical (Caco-2 cell monolayer; DS2, after 120 min): 2.49 µg | percentage of applied spilanthol permeated, apical-to-basolateral (Caco-2 cell monolayer; DS2, after 120 min): 64.3% | percentage of applied spilanthol permeated, basolateral-to-apical (Caco-2 cell monolayer; DS2, after 120 min): 21.6% | percentage of applied DS permeated, apical-to-basolateral (absorptive direction) (Caco-2 cell monolayer; after 120 min, DS1 and DS2): 64–80% | difference in Papp values between apical-to-basolateral and basolateral-to-apical direction (Caco-2 cell monolayer; both dose solutions): less than 2 fold | half-life ([2]; female, ICR-CD-1, iv, 80 μg per mouse, mouse serum, i.v.): 3.16 min | k el ([2]; female, ICR-CD-1, iv, 80 μg per mouse, mouse serum, i.v., one compartmental model, read-out: elimination rate constant (converted)): 0.00367 s⁻¹ | concentration of spilanthol at time zero in serum ([2]; mice, i.v. 20 μl of 4 mg/ml, one compartmental model): 3050 ng/mL | permeability coefficient Kp,aq [3]: 0.919 ×10⁻⁶ cm/s | permeability coefficient Kp,aq [4]: 3.14 ×10⁻⁶ cm/s | LogP [5]: 3.39
